Data from patent US20110217300A1, “Quinazolinone Compounds and Methods of Use Thereof” (priority 2007, published 2011).
Like-named read-outs stand apart in the source and are kept apart here.

What was measured:
NCI-H460 = assay: MTS cell viability assay; format: cell-based, human; conditions: Homo sapiens, NCI-H460, 72 h
Description: Cell viability was determined by measuring the activity of dehydrogenase enzymes in metabolically active cells using a tetrazolium compound, MTS. The assay was performed as described in Promega Technical Bulletin No. 169 (CellTiter 96 Aqueous Non-Radioactive Cell Proliferation Assay). Two human cancer cell lines were assayed (see, Table 1). Cells were maintained at 37° C. and 5% CO2 in DMEM media (4.5 g/L glucose) supplemented with 10% heat-inactivated FBS, 10 mM L-glutamine, and 10 mM Hepes pH 7.5. Briefly, cells were seeded in 96-well plates as set forth in Table 1 and incubated for 16-24 hours. Candidate compounds were serially diluted in DMSO, further diluted in cell culture media, and then added to cells (final DMSO concentration of 0.33%). Cells were incubated in the presence of candidate compound for 72 hours. MTS stock solution (MTS 2 gm/L, PMS […] in PBS) was added to the cells (final concentration MTS […] and PMS 7.67 mg/L) and incubated for 4 hours. SDS was added to a final concentration of 1.4% and absorbance at 490 nm was measured within two hours using a plate reader. […] GI50 values were given in Table 2 for the compounds listed. The Compound Numbers in Table 2 correspond to the numbers listed parenthetically in the Example titles. Where multiple measurements were made by different technicians, both values are given.
Cell viability was determined for N-(3-amino-propyl)-3-chloro-N—[(R)-1-(7-chloro-4-oxo-3-phenylamino-3,4-dihydro-quinazolin-2-yl)-but-3-ynyl]-2-fluoro-benzamide (compound I of Table 2). The cell viability assay of Example 105 was used. GI50 was determined using a variety of cell lines. Cells were plated at 100-5000 cells per well. At least 2 replicates were performed. Where multiple measurements were made by different technicians, both values are given.

A549 = assay: MTS cell viability assay; format: cell-based; conditions: Homo sapiens, A549 non small cell lung, 72 hours, read-out: MTS NCI A549 GI50
Description: Two human cancer cell lines were assayed (see, Table 1). Cells were maintained at 37° C. and 5% CO2 in DMEM media (4.5 g/L glucose) supplemented with 10% heat-inactivated FBS, 10 mM L-glutamine, and 10 mM Hepes pH 7.5. Briefly, cells were seeded in 96-well plates as set forth in Table 1 and incubated for 16-24 hours. Candidate compounds were serially diluted in DMSO, further diluted in cell culture media, and then added to cells (final DMSO concentration of 0.33%). Cells were incubated in the presence of candidate compound for 72 hours. […] The Compound Numbers in Table 2 correspond to the numbers listed parenthetically in the Example titles.

HsEg5 = target: T1, HsEg5 (Homo sapiens, UniProt P52732); assay: Fluorescence detection of HsEg5 ATPase activity (ADP Quest, automated); format: biochemical
T1 sequence (P52732 18-359 limits assumed): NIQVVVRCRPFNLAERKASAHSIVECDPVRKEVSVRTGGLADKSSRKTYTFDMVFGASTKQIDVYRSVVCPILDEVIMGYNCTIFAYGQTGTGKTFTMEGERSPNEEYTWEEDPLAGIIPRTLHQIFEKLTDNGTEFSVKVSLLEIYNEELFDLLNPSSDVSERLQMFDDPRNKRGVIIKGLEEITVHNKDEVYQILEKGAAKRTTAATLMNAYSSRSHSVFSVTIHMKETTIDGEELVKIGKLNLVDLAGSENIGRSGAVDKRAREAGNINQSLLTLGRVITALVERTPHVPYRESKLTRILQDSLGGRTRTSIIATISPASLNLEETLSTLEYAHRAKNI
Description: Purified HsEg5 motor fragment was activated by mixture with preformed MT polymer (Cytoskeleton, Denver, Colo.) at room temperature for 20 minutes. MT activated ATPase activity was measured using ADP Quest (DiscoverX, Fremont, Calif.) in which a coupled-enzyme assay can translate accumulation of ADP into detectable resorufin signal (FIG. 1A). Fluorescence was measured at λEx=535 nm and λEm=590 nm on a Wallac Victor 2 plate reader (Perkin-Elmer Life Sciences, Boston, Mass.). Reagent A and B from ADP Quest kit were aliquoted and frozen in −20° C. before use. A standard curve was determined using the provided ADP reagent in the reaction buffer that consisted of 50 mM Pipes (pH7.0), 5.0 mM MgCl2, 20 μM paclitaxel and […]. The same buffer was used for Km determination with HsEg5 concentration of 10 nM.
For inhibitor screening, 4 μL of compounds were incubated with 10 μL of MT-activated HsEg5 such that the final concentrations for compound range from 100 μM to 5 nM (1 to 3 serial dilutions, final concentration) and final concentration for HsEg5 is 10 nM. The mixture was incubated at room temperature for 10 minutes with mild shaking. The screening assay contained 0.3% DMSO in all reaction wells. We used wells containing only DMSO as negative controls and wells without ATP as background. Addition of 6 μL ATP (final concentration of 20 μM) initiated the ATP hydrolysis reaction. The 20 μL-reaction was allowed to proceed at room temperature for 10 minutes before addition of 10 μL of reagent A and 20 μL of reagent B. After 20-minute development at room temperature, the fluorescence was measured and data analysis was performed using GraphPad Prism version 3.0 (GraphPad Software, San Diego, Calif.)
For the purpose of high-throughput screening, we automated the fluorescence assay using a Sciclone ALH3000 (Caliper Life Sciences, Hopkinton, Mass.) and Multidrop 384 (Thermo Electron Corp, Waltham, Mass.). First, compound dilution plates for screening (at 10 μM or 1 μM) and ICso determination (10 data points from 100 μM to 5 nM) were made in Corning polypropylene V-bottom 96-well plates. In both cases, the 1st and 7th column contained background (No ATP addition) and negative control (DMSO only). For screening compounds at 10 μM or 1 μM, […] of each compound at 50 μM or 5 μM were used in a 20 μL assay reaction. For IC50 determination, the mother compound plate contained 24 μL of tested compound at stock concentration of 30 mM. 6 μL of each test compound in 30 mM was added to each well in the column 2 and followed by 1:3 serial dilutions in DMSO with the Sciclone ALH3000. 234 μL of assay buffer was then added using a Multidrop 384. Then 4 μL of diluted compounds was used in 20 μL-reaction. The final concentration was a 1:300 dilution of the original stock. Second, a reagent source plate was prepared with three rows designated to MT-activated HsEg5, Reagent A and Reagent B respectively. MTs were diluted with assay buffer and polymerized at room temperature for 10 minutes. Just before use, HsEg5 protein was thawed on ice and activated by addition of MT polymers at room temperature for 20 minutes. HsEg5/MT was then added to Row A of the reagent source plate. The final assay concentration was 10 nM HsEg5 and 500 nM MTs. Reagent A and B were stored at −20° C. and thawed at room temperature followed by transferring to rows B & C of the reagent source plate. Third, ATP substrate plate was prepared by transferring 80 μM ATP solution to each well of a V-shape 96-well plate except the wells in the first row where assay buffer was added instead to have no-ATP blanks. The final concentration for ATP in the assay was 20 μM.
The assay was programmed on Sciclone ALH3000 with the following procedures: 1) Addition of 4 μL compounds to the assay plate, followed by addition of 10 μL of MT-activated HsEg5. […]

[1] = read-out: MTS NCI H460 GI50, NCI-H460 non small cell lung, 72 hours

## CCC(c1nc2cc(Cl)ccc2c(=O)n1Nc1ccccc1)N(CCCN)C(=O)c1ccc(Cl)c(Cl)c1 (stereo not drawn) [Compound 6, N-(3-Aminopropyl)-N-[1-(3-anilino-7-chloro-4-oxo-3,4-dihydroquinazolin-2-yl)propyl]-3,4-dichlorobenzamide]
NCI-H460; [1]
  GI50: 1160 nM
A549; A549, 72 h
  GI50: 1870 nM
HsEg5
  IC50: 418 nM

## CCC(c1nc2cc(Cl)ccc2c(=O)n1Nc1ccccc1)N(CCCN)C(=O)c1cccc(F)c1F (stereo not drawn) [Compound 7, N-(3-Aminopropyl)-N-[1-(3-anilino-7-chloro-4-oxo-3,4-dihydroquinazolin-2-yl)propyl]-2,3-difluorobenzamide]
NCI-H460; read-out: MTS NCI H460 GI50
  GI50: 1770 nM
A549
  GI50: 2570 nM
HsEg5
  IC50: 566 nM

## CCC(c1nc2cc(Cl)ccc2c(=O)n1Nc1ccccc1)N(CCCN)C(=O)c1ccc(F)cc1 (stereo not drawn) [Compound 8, N-(3-Aminopropyl)-N-[1-(3-anilino-7-chloro-4-oxo-3,4-dihydroquinazolin-2-yl)propyl]-4-fluorobenzamide]
NCI-H460; [1]
  GI50: 2830 nM
A549; A549, 72 h
  GI50: 4750 nM
HsEg5
  IC50: 2130 nM

## CCC(c1nc2cc(Cl)ccc2c(=O)n1Nc1ccccc1)N(CCCN)C(=O)c1ccc(F)c(F)c1 (stereo not drawn) [Compound 9, N-(3-Aminopropyl)-N-[1-(3-anilino-7-chloro-4-oxo-3,4-dihydroquinazolin-2-yl)propyl]-3,4-difluorobenzamide]
NCI-H460; [1]
  GI50: 2390 nM
A549; A549, 72 h
  GI50: 3570 nM
HsEg5
  IC50: 1160 nM

## CCC(c1nc2cc(Cl)ccc2c(=O)n1Nc1ccccc1)N(CCCN)C(=O)c1ccc(F)c(F)c1F (stereo not drawn) [Compound 10, N-(3-Aminopropyl)-N-[1-(3-anilino-7-chloro-4-oxo-3,4-dihydroquinazolin-2-yl)propyl]-2,3,4-trifluorobenzamide]
NCI-H460; [1]
  GI50: 1140 nM
A549; A549, 72 h
  GI50: 2360 nM
HsEg5
  IC50: 599 nM

## CCC(c1nc2cc(Cl)ccc2c(=O)n1Nc1ccccc1)N(CCCN)C(=O)c1cc(Cl)cc(Cl)c1 (stereo not drawn) [Compound 11, N-(3-Aminopropyl)-N-[1-(3-anilino-7-chloro-4-oxo-3,4-dihydroquinazolin-2-yl)propyl]-3,5-dichlorobenzamide]
NCI-H460; read-out: MTS NCI H460 GI50
  GI50: 2440 nM
A549
  GI50: 3010 nM
HsEg5
  IC50: 735 nM

## CCC(c1nc2cc(Cl)ccc2c(=O)n1Nc1ccccc1)N(CCCN)C(=O)c1cccc(Cl)c1Cl (stereo not drawn) [Compound 12, N-(3-Aminopropyl)-N-[1-(3-anilino-7-chloro-4-oxo-3,4-dihydroquinazolin-2-yl)propyl]-2,3-dichlorobenzamide]
NCI-H460; read-out: MTS NCI H460 GI50
  GI50: 2110 nM
A549
  GI50: 3370 nM
HsEg5
  IC50: 818 nM

## CCC(c1nc2cc(Cl)ccc2c(=O)n1Nc1ccccc1)N(CCCN)C(=O)c1ccc(F)c(Cl)c1 (stereo not drawn) [Compound 13, N-(3-Aminopropyl)-N-[1-(3-anilino-7-chloro-4-oxo-3,4-dihydroquinazolin-2-yl)propyl]-3-chloro-4-fluorobenzamide]
NCI-H460; read-out: MTS NCI H460 GI50
  GI50: 2210 nM
A549
  GI50: 3570 nM
HsEg5
  IC50: 749 nM

## CCC(c1nc2cc(Cl)ccc2c(=O)n1Nc1ccccc1)N(CCCN)C(=O)c1cccc(Br)c1 (stereo not drawn) [Compound 14, N-(3-Aminopropyl)-N-[1-(3-anilino-7-chloro-4-oxo-3,4-dihydroquinazolin-2-yl)propyl]-3-bromobenzamide]
NCI-H460; read-out: MTS NCI H460 GI50
  GI50: 3250 nM
A549
  GI50: 3440 nM
HsEg5
  IC50: 1000 nM

## CCC(c1nc2cc(Cl)ccc2c(=O)n1Nc1ccccc1)N(CCCN)C(=O)c1ccc(I)cc1 (stereo not drawn) [Compound 15, N-(3-Aminopropyl)-N-[1-(3-anilino-7-chloro-4-oxo-3,4-dihydroquinazolin-2-yl)propyl]-4-iodobenzamide]
NCI-H460; [1]
  GI50: 2270 nM
A549; A549, 72 h
  GI50: 3080 nM
HsEg5
  IC50: 1650 nM

## CCC(c1nc2cc(Cl)ccc2c(=O)n1Nc1ccccc1)N(CCCN)C(=O)c1ccc(C)c(F)c1 (stereo not drawn) [Compound 16, N-(3-Aminopropyl)-N-[1-(3-anilino-7-chloro-4-oxo-3,4-dihydroquinazolin-2-yl)propyl]-3-fluoro-4-methylbenzamide]
NCI-H460; read-out: MTS NCI H460 GI50
  GI50: 929 nM
A549
  GI50: 1360 nM
HsEg5
  IC50: 1150 nM

## CCC(c1nc2cc(Cl)ccc2c(=O)n1Nc1ccccc1)N(CCCN)C(=O)c1c(F)ccc(C)c1F (stereo not drawn) [Compound 17, N-(3-Aminopropyl)-N-[1-(3-anilino-7-chloro-4-oxo-3,4-dihydroquinazolin-2-yl)propyl]-2,6-difluoro-3-methylbenzamide]
NCI-H460; [1]
  GI50: 1590 nM
A549; A549, 72 h
  GI50: 2560 nM
HsEg5
  IC50: 1600 nM

## CCC(c1nc2cc(Cl)ccc2c(=O)n1Nc1ccccc1)N(CCCN)C(=O)c1ccc(F)c(C)c1 (stereo not drawn) [Compound 18, N-(3-Aminopropyl)-N-[1-(3-anilino-7-chloro-4-oxo-3,4-dihydroquinazolin-2-yl)propyl]-4-fluoro-3-methylbenzamide]
NCI-H460; [1]
  GI50: 2500 nM
A549; A549, 72 h
  GI50: 3920 nM
HsEg5
  IC50: 1250 nM

## CCC(c1nc2cc(Cl)ccc2c(=O)n1Nc1ccccc1)N(CCCN)C(=O)c1cccc(Cl)c1F (stereo not drawn) [Compound 19, N-(3-Aminopropyl)-N-[1-(3-anilino-7-chloro-4-oxo-3,4-dihydroquinazolin-2-yl)propyl]-3-chloro-2-fluorobenzamide]
NCI-H460; read-out: MTS NCI H460 GI50
  GI50: 894 nM
A549
  GI50: 1570 nM
HsEg5
  IC50: 582 nM
